Laboratory results reported in ChEMBL document CHEMBL1144044, “Synthesis and biological activity of quinolinone and dihydroquinolinone p38 MAP kinase inhibitors” (Bioorg Med Chem Lett, 2008).

Assays:
[1] = biological target: T1, Mitogen-activated protein kinase 14 (Homo sapiens, UniProt Q16539); assay: Inhibition of p38-alpha at 1250 nM
[2] = biological target: T1, Mitogen-activated protein kinase 14; assay: Inhibition of p38alpha
[3] = biological target: T1, Mitogen-activated protein kinase 14; assay: Inhibition of p38-alpha by whole blood assay
[4] = biological target: T1, Mitogen-activated protein kinase 14; assay: Inhibition of p38-alpha at 100 nM
[5] = biological target: T1, Mitogen-activated protein kinase 14; assay: Inhibition of p38-alpha at 10 uM by whole blood assay
[6] = biological target: T1, Mitogen-activated protein kinase 14; assay: Inhibition of p38-alpha at 1000 nM

T1 sequence (Q16539 whole entry): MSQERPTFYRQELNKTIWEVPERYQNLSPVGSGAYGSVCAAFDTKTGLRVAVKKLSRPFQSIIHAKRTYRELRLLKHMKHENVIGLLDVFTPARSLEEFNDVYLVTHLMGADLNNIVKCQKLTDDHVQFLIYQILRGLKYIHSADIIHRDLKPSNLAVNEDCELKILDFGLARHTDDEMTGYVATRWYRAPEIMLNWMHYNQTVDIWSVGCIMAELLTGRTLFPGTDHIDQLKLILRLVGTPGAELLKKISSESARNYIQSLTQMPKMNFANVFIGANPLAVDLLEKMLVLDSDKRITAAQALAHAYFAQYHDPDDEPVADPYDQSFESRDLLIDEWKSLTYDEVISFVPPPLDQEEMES

| Compound | IC50 ([2]; read-out: IC50) | IC50 [3] | also measured |
| --- | --- | --- | --- |
| COc1cc(-c2ccccc2Cl)c2c(c1)N(c1c(Cl)cccc1Cl)C(=O)C(OC)C2 (stereo unspecified) |  |  | inhibition [1]: 63% |
| O=C(NCCOc1cc(-c2ccccc2Cl)c2ccc(=O)n(-c3c(Cl)cccc3Cl)c2c1)[C@H]1CCCN1 | 0.9 nM | 73 nM |  |
| [N-]=[N+]=NC1Cc2c(-c3ccccc3Cl)cccc2N(c2c(Cl)cccc2Cl)C1=O (stereo unspecified) |  |  | inhibition [4]: 15% |
| CC(C)(N)C(=O)NCCOc1cc(-c2ccccc2Cl)c2ccc(=O)n(-c3c(Cl)cccc3Cl)c2c1 | 0.12 nM | 28 nM |  |
| O=C1C(O)Cc2c(-c3ccccc3Cl)cccc2N1c1c(Cl)cccc1Cl (stereo unspecified) | 27.5 nM |  |  |
| NC1Cc2c(-c3ccccc3Cl)cccc2N(c2c(Cl)cccc2Cl)C1=O (stereo unspecified) |  |  | IC50 [2]: Not Active |
| COc1cc(-c2ccccc2Cl)c2cc(O)c(=O)n(-c3c(Cl)cccc3Cl)c2c1 | 28 nM |  |  |
| O=c1ccc2c(-c3ccccn3)cccc2n1-c1c(Cl)cccc1Cl | 350 nM |  |  |
| NC1(C(=O)NCCOc2cc(-c3ccccc3Cl)c3ccc(=O)n(-c4c(Cl)cccc4Cl)c3c2)CC1 | 1.5 nM | 1010 nM |  |
| O=c1ccc2c(-c3ccccc3Cl)cccc2n1-c1c(Cl)cccc1Cl | 6 nM |  |  |
| O=C1C(O)Cc2c(-c3ccccc3Cl)cc(O)cc2N1c1c(Cl)cccc1Cl (stereo unspecified) | 4 nM |  |  |
| O=c1ccc2c(-c3ccccc3Cl)cc(O)cc2n1-c1c(Cl)cccc1Cl | 0.7 nM |  |  |
| COc1cc(-c2ccccc2Cl)c2ccc(=O)n(-c3c(Cl)cccc3Cl)c2c1 | 1.5 nM |  | inhibition [5]: 75% |
| NCCC(=O)NCCOc1cc(-c2ccccc2Cl)c2ccc(=O)n(-c3c(Cl)cccc3Cl)c2c1 | 0.57 nM | 130 nM |  |
| O=c1c(O)cc2c(-c3ccccc3Cl)cc(O)cc2n1-c1c(Cl)cccc1Cl | 5 nM |  |  |
| COc1cc(-c2ccccc2Cl)c2c(c1)N(c1c(Cl)cccc1Cl)C(=O)C(O)C2 (stereo unspecified) | 9 nM |  |  |
| NC(CO)C(=O)NCCOc1cc(-c2ccccc2Cl)c2ccc(=O)n(-c3c(Cl)cccc3Cl)c2c1 (stereo unspecified) | 0.5 nM | 200 nM |  |
| O=c1ccc2c(-c3cccnc3)cccc2n1-c1c(Cl)cccc1Cl | 460 nM |  |  |
| C[C@H](N)C(=O)NCCOc1cc(-c2ccccc2Cl)c2ccc(=O)n(-c3c(Cl)cccc3Cl)c2c1 | 0.16 nM | 32 nM |  |
| O=c1ccc2c(-c3ccncc3)cccc2n1-c1c(Cl)cccc1Cl |  |  | inhibition [6]: 58% |
| C[C@@H](N)C(=O)NCCOc1cc(-c2ccccc2Cl)c2ccc(=O)n(-c3c(Cl)cccc3Cl)c2c1 | 0.2 nM | 47 nM |  |
| NCC(=O)NCCOc1cc(-c2ccccc2Cl)c2ccc(=O)n(-c3c(Cl)cccc3Cl)c2c1 | 0.3 nM | 80 nM |  |
| O=c1ccc2c(-c3ccccc3)cccc2n1-c1c(Cl)cccc1Cl | 13.4 nM |  |  |
| O=C(NCCOc1cc(-c2ccccc2Cl)c2ccc(=O)n(-c3c(Cl)cccc3Cl)c2c1)[C@@H]1CCCN1 | 0.75 nM | 87 nM |  |
| COc1cc(-c2ccccc2Cl)c2cc(OC)c(=O)n(-c3c(Cl)cccc3Cl)c2c1 |  |  | inhibition [4]: 29% |
| COC1Cc2c(-c3ccccc3Cl)cccc2N(c2c(Cl)cccc2Cl)C1=O (stereo unspecified) |  |  | IC50 [2]: Not Active |
